Reference: publication PMC7932537, “Quantitative profiling of protease specificity” (PLoS Computational Biology, 2021)

Assays:
[1] = system: MMP-2; assay: Substrate phage display with NGS: relative probability (RP) of P3-P1' tetramer clusters; type: biochemical, human; conditions: MMP2;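 further: ratio of tetramer probability after protease selection to that in naive phage library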
[2] = target: T1, MMP-2 (Homo sapiens, UniProt P08253); assay: K(obs) of individual phage substrates (set of 1369); type: biochemical; conditions: MMP2
T1 sequence (P08253 110-660): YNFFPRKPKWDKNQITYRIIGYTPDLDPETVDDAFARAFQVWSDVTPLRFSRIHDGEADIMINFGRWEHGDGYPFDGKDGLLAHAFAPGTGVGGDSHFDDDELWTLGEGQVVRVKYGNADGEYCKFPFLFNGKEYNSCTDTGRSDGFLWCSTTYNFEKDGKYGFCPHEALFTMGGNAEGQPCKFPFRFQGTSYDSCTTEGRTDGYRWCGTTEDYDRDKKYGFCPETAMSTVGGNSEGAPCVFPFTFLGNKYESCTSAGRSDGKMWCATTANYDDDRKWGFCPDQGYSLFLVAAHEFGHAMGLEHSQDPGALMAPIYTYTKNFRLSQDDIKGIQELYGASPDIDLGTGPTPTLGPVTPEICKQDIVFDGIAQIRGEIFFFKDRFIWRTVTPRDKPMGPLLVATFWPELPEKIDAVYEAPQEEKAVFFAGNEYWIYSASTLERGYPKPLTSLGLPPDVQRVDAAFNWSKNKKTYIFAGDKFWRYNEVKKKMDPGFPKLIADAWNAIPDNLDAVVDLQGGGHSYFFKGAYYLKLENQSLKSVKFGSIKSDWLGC

[3] = target: MMP-9 (Homo sapiens, UniProt P14780); assay: as above; type: biochemical; conditions: MMP9
[4] = RP of the P3-P1' tetramer contained in the substrate
[5] = individual phage substrate of the set of 1369 peptides, cleavage position marked by '-'
[6] = individual phage substrate of the set of 1369 peptides, dash in the sequence marks the cleavage position
[7] = RP of the P3-P1' tetramer contained in the substrate (substrate phage display with NGS)
[8] = individual phage substrates, set of 1369 peptides, cleavage position marked by hyphen in sequence
[9] = individual phage substrates, set of 1369 peptides, hyphen in sequence marks cleavage position

MMP-9, sequence (P14780 94-707): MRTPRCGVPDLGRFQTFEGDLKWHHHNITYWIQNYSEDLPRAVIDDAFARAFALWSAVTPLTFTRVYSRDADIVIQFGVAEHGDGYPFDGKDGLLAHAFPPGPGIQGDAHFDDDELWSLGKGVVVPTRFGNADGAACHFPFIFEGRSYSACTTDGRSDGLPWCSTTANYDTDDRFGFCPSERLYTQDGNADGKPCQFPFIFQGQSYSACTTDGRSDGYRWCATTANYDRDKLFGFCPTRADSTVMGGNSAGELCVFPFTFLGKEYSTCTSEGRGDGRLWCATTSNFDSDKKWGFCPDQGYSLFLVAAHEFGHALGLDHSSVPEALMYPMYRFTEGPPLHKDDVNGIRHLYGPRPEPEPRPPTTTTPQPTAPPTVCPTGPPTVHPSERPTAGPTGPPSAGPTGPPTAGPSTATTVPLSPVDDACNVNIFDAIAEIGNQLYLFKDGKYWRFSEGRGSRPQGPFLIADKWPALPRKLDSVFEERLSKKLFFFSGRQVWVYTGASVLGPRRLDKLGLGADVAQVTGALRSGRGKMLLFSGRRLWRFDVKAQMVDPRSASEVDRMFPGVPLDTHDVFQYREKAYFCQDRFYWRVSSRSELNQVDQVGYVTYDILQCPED

Row | Substance | Kobs [2, 5] | Kobs [3, 6] | Kobs [2, 8] | Kobs [3, 9] | relative probability (RP) [1, 4] | relative probability (RP) [1, 7]
1 | RAPSM-LTASG |  |  | 5889.62 M⁻¹ s⁻¹ | 7815.03 M⁻¹ s⁻¹ |  | 33.0235
2 | YDIHF-LTASG | 0 M⁻¹ s⁻¹ | 0 M⁻¹ s⁻¹ |  |  | 4.537 | 
3 | HLAYH-MTASG |  |  | 2476.66 M⁻¹ s⁻¹ | 6396.07 M⁻¹ s⁻¹ |  | 3.76
4 | SGYRS-LYSTA |  |  | 2280.5 M⁻¹ s⁻¹ | 2476.66 M⁻¹ s⁻¹ |  | 1.506
5 | GPVYN-LRTAS | 5269.78 M⁻¹ s⁻¹ | 12792.1 M⁻¹ s⁻¹ |  |  | 19.1818 | 
6 | GGPSM-LTASG |  |  | 12792.1 M⁻¹ s⁻¹ | 12792.1 M⁻¹ s⁻¹ |  | 33.0235
7 | SGFLH-WRSTA |  |  | 0 M⁻¹ s⁻¹ | 0 M⁻¹ s⁻¹ |  | 0.05793
8 | SGVRA-IIATA | 12792.1 M⁻¹ s⁻¹ | 12792.1 M⁻¹ s⁻¹ |  |  | 26.2338 | 
9 | AGVRY-LTASG |  |  | 5889.62 M⁻¹ s⁻¹ | 7815.03 M⁻¹ s⁻¹ |  | 18.3724
10 | DNTFH-LTASG | 142.481 M⁻¹ s⁻¹ | 0 M⁻¹ s⁻¹ |  |  | 0.1298 | 
11 | GDMRH-LSTAS |  |  | 1561.44 M⁻¹ s⁻¹ | 799.117 M⁻¹ s⁻¹ |  | 14.413
12 | GWPRE-LKTAS | 12792.1 M⁻¹ s⁻¹ | 12792.1 M⁻¹ s⁻¹ |  |  | 31.9513 | 
13 | GHVRH-LLTAS | 2545.25 M⁻¹ s⁻¹ | 386.839 M⁻¹ s⁻¹ |  |  | 25.4239 | 
14 | SGPQW-ITGTA | 7815.03 M⁻¹ s⁻¹ | 12792.1 M⁻¹ s⁻¹ |  |  | 28.1021 | 
15 | TRIAY-LTASG | 12792.1 M⁻¹ s⁻¹ | 3165.09 M⁻¹ s⁻¹ |  |  | 27.9862 | 
16 | SGARS-MRLTA |  |  | 0 M⁻¹ s⁻¹ | 762.325 M⁻¹ s⁻¹ |  | 12.2991
17 | AAWAS-ITASG | 6396.07 M⁻¹ s⁻¹ | 0 M⁻¹ s⁻¹ |  |  | 12.5247 | 
18 | ESFAA-LTASG | 12792.1 M⁻¹ s⁻¹ | 56.119 M⁻¹ s⁻¹ |  |  | 18.8584 | 
19 | GGSGS-LVNLL |  |  | 0 M⁻¹ s⁻¹ | 0 M⁻¹ s⁻¹ |  | 7.225
20 | NSPLS-YTASG | 8321.48 M⁻¹ s⁻¹ | 12792.1 M⁻¹ s⁻¹ |  |  | 31.2477 | 
21 | VQQQG-LTASG | 3741.87 M⁻¹ s⁻¹ | 231.616 M⁻¹ s⁻¹ |  |  | 6.401 | 
22 | TKMAW-LTASG | 7015.91 M⁻¹ s⁻¹ | 1513.13 M⁻¹ s⁻¹ |  |  | 31.5866 | 

Row | Substance | Kobs [2, 5] | Kobs [3, 6] | Kobs [2, 8] | Kobs [3, 9] | relative probability (RP) [1, 4] | relative probability (RP) [1, 7]
23 | EQLSF-LTASG |  |  | 12792.1 M⁻¹ s⁻¹ | 0 M⁻¹ s⁻¹ |  | 14.5333
24 | GQARG-LQTAS | 3253.29 M⁻¹ s⁻¹ | 1660.66 M⁻¹ s⁻¹ |  |  | 25.9476 | 
25 | ERIYA-LTASG |  |  | 2687.73 M⁻¹ s⁻¹ | 7386.83 M⁻¹ s⁻¹ |  | 6.967
26 | VRVLH-LTASG |  |  | 8321.48 M⁻¹ s⁻¹ | 8321.48 M⁻¹ s⁻¹ |  | 19.5348
27 | YVPTG-LTASG | 5461.43 M⁻¹ s⁻¹ | 4763.33 M⁻¹ s⁻¹ |  |  | 33.1098 | 
28 | ARSYN-LTASG | 3165.09 M⁻¹ s⁻¹ | 3964.21 M⁻¹ s⁻¹ |  |  | 6.093 | 
29 | GTPYG-LVTAS | 12792.1 M⁻¹ s⁻¹ | 12792.1 M⁻¹ s⁻¹ |  |  | 32.9966 | 
30 | PHTAS-LTASG | 12792.1 M⁻¹ s⁻¹ | 0 M⁻¹ s⁻¹ |  |  | 17.8872 | 
31 | SNLNS-TASGA | 4205.91 M⁻¹ s⁻¹ | 4470.66 M⁻¹ s⁻¹ |  |  | 0.4784 | 
32 | NRVEM-LTASG | 261.974 M⁻¹ s⁻¹ | 0 M⁻¹ s⁻¹ |  |  | 2.124 | 
33 | GEVRG-LRTAS |  |  | 12792.1 M⁻¹ s⁻¹ | 7386.83 M⁻¹ s⁻¹ |  | 29.092
34 | AGPQP-LTASG |  |  | 12792.1 M⁻¹ s⁻¹ | 12792.1 M⁻¹ s⁻¹ |  | 30.3595
35 | IGPQF-LTASG | 12792.1 M⁻¹ s⁻¹ | 12792.1 M⁻¹ s⁻¹ |  |  | 26.3159 | 
36 | SGPAR-LISTA |  |  | 12792.1 M⁻¹ s⁻¹ | 12792.1 M⁻¹ s⁻¹ |  | 34.9166
37 | GSPMH-LITAS |  |  | 6688.74 M⁻¹ s⁻¹ | 9740.44 M⁻¹ s⁻¹ |  | 30.095
38 | PKFSH-MTASG |  |  | 1030.73 M⁻¹ s⁻¹ | 0 M⁻¹ s⁻¹ |  | 11.0227
39 | MNWES-LTASG |  |  | 517.582 M⁻¹ s⁻¹ | 0 M⁻¹ s⁻¹ |  | 0.6249
40 | GMARF-LSTAS |  |  | 2097.28 M⁻¹ s⁻¹ | 912.511 M⁻¹ s⁻¹ |  | 8.577
41 | SGPYP-LWKTA | 2218.08 M⁻¹ s⁻¹ | 3079.62 M⁻¹ s⁻¹ |  |  | 30.8058 | 
42 | SGSMR-LVLTA |  |  | 0 M⁻¹ s⁻¹ | 0 M⁻¹ s⁻¹ |  | 0
43 | VFPMS-LTASG | 12792.1 M⁻¹ s⁻¹ | 12792.1 M⁻¹ s⁻¹ |  |  | 32.4868 | 
44 | SGHQN-LMATA |  |  | 7386.83 M⁻¹ s⁻¹ | 1561.44 M⁻¹ s⁻¹ |  | 17.7487

Continued, in another order:

Row | Kobs [2, 5] | Kobs [3, 6] | Kobs [2, 8] | Kobs [3, 9] | Substance | relative probability (RP) [1, 4] | relative probability (RP) [1, 7]
45 | 451.441 M⁻¹ s⁻¹ | 836.403 M⁻¹ s⁻¹ |  |  | GRMLH-LRTAS | 8.417 | 
46 |  |  | 0 M⁻¹ s⁻¹ | 0 M⁻¹ s⁻¹ | SGWSN-LMRTA |  | 17.9326
47 | 0 M⁻¹ s⁻¹ | 0 M⁻¹ s⁻¹ |  |  | GHYHH-LMTAS | 0 | 
48 |  |  | 2097.28 M⁻¹ s⁻¹ | 762.325 M⁻¹ s⁻¹ | SGYAN-MRRTA |  | 22.6837
49 | 12792.1 M⁻¹ s⁻¹ | 12792.1 M⁻¹ s⁻¹ |  |  | GWPAG-LTTAS | 36.0156 | 
50 | 12792.1 M⁻¹ s⁻¹ | 12792.1 M⁻¹ s⁻¹ |  |  | RFPRP-ITASG | 33.2176 | 
51 | 1925.41 M⁻¹ s⁻¹ | 323.705 M⁻¹ s⁻¹ |  |  | VVLMG-LTASG | 28.5499 | 
52 |  |  | 12792.1 M⁻¹ s⁻¹ | 990.764 M⁻¹ s⁻¹ | LLYAS-LTASG |  | 26.9916
53 | 799.117 M⁻¹ s⁻¹ | 2687.73 M⁻¹ s⁻¹ |  |  | VPPRV-LTASG | 13.9079 | 
54 |  |  | 0 M⁻¹ s⁻¹ | 0 M⁻¹ s⁻¹ | GLPDF-LTASG |  | 1.02
55 |  |  | 27.918 M⁻¹ s⁻¹ | 619.843 M⁻¹ s⁻¹ | SGSLA-LQSTA |  | 6.019
56 |  |  | 874.197 M⁻¹ s⁻¹ | 799.117 M⁻¹ s⁻¹ | LLYMG-LTASG |  | 0.09823
57 | 12792.1 M⁻¹ s⁻¹ | 12792.1 M⁻¹ s⁻¹ |  |  | SGPKS-LVRTA | 32.0343 | 
58 | 690.17 M⁻¹ s⁻¹ | 0 M⁻¹ s⁻¹ |  |  | KTWRN-LTASG | 6.7583 | 
59 |  |  | 451.441 M⁻¹ s⁻¹ | 113.394 M⁻¹ s⁻¹ | YCSLP-LTASG |  | 8.6373
60 |  |  | 2837.92 M⁻¹ s⁻¹ | 3079.62 M⁻¹ s⁻¹ | HWPVG-LTASG |  | 35.2016
61 |  |  | 4205.91 M⁻¹ s⁻¹ | 762.325 M⁻¹ s⁻¹ | GMAQY-LTASG |  | 7.443
62 |  |  | 12792.1 M⁻¹ s⁻¹ | 1870.4 M⁻¹ s⁻¹ | IPLLN-LTASG |  | 8.579
63 |  |  | 0 M⁻¹ s⁻¹ | 142.481 M⁻¹ s⁻¹ | MGMWH-LTASG |  | 0.2013
64 |  |  | 0 M⁻¹ s⁻¹ | 0 M⁻¹ s⁻¹ | YDTQH-LTASG |  | 2.922
65 | 1660.66 M⁻¹ s⁻¹ | 12792.1 M⁻¹ s⁻¹ |  |  | YSPMD-YTASG | 10.9087 | 
66 |  |  | 27.918 M⁻¹ s⁻¹ | 836.403 M⁻¹ s⁻¹ | SGVYS-LIKTA |  | 16.838
67 | 654.784 M⁻¹ s⁻¹ | 2916.17 M⁻¹ s⁻¹ |  |  | GFAWS-LHTAS | 7.006 | 
68 | 8321.48 M⁻¹ s⁻¹ | 3253.29 M⁻¹ s⁻¹ |  |  | RKPAP-WTASG | 31.7353 | 
69 | 0 M⁻¹ s⁻¹ | 0 M⁻¹ s⁻¹ |  |  | TTYMS-LTASG | 0.07249 | 
70 | 12792.1 M⁻¹ s⁻¹ | 12792.1 M⁻¹ s⁻¹ |  |  | IGALA-LTASG | 22.1184 | 
